# According to patent US20100298141A1, “SUBSTITUTED PYRIDINE N-OXIDE HERBICIDES” (E. I. DU PONT DE NEMOURS AND COMPANY, priority 2007, published 2010):
# Columns and labels:
# [1] = system: wild oat; experiment: Test C pre-/postemergence test; assay type: in vivo, Avena fatua
# Summary of the method: (§1)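 Test chemicals were formulated with surfactant in a non-phytotoxic solvent and sprayed both on freshly planted seeds (preemergence) and on 1- to 4-leaf plants of 2–18 cm (postemergence). Flooded-paddy pots received compound directly into 3 cm of standing water, maintained for the test.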
# [2] = system: giant foxtail; experiment: Test C pre-/postemergence test; assay type: in vivo, Setaria faberii
# Summary of the method: as §1
# [3] = system: soybean; experiment: Test C pre-/postemergence test; assay type: in vivo, Glycine max
# Summary of the method: as §1
# [4] = system: Italian ryegrass; experiment: Test C pre-/postemergence test; assay type: in vivo, Lolium multiflorum
# Summary of the method: as §1
# [5] = system: johnsongrass; experiment: Test C pre-/postemergence test; assay type: in vivo, Sorghum halepense
# Summary of the method: as §1
# [6] = system: cocklebur; experiment: Test C pre-/postemergence test; assay type: in vivo, Xanthium strumarium
# Summary of the method: as §1
# [7] = system: duck salad; experiment: Test C flooded paddy test; assay type: in vivo, Heteranthera limosa; conditions: Flood
# Summary of the method: (§2)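 Greenhouse pots flooded to 3 cm above soil at time of treatment received compound via the water, which stayed at that level.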
# [8] = system: velvetleaf; experiment: Test C pre-/postemergence test; assay type: in vivo, Abutilon theophrasti
# Summary of the method: as §1
# [9] = system: velvetleaf; experiment: Test A pre-/postemergence greenhouse test; assay type: in vivo, Abutilon theophrasti; conditions: for Plant response rating, Velvetleaf: 0 to 100 scale where 0 is no effect and 100 is complete control; for Velvetleaf plant response rating: 0 to 100 scale
# Summary of the method: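 Two application timings were run side by side in the greenhouse. Before emergence, compound went onto the soil surface of loam–sand pots as a directed spray; after emergence, plants at 2–10 cm and the one- to two-leaf stage were treated. Visual injury versus controls was rated at approximately day ten.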
# [10] = system: morningglory; experiment: Test C pre-/postemergence test; assay type: in vivo, Ipomoea coccinea
# Summary of the method: as §1
# [11] = system: catchweed bedstraw; experiment: Test C pre-/postemergence test; assay type: in vivo, Galium aparine
# Summary of the method: as §1
# [12] = system: barnyardgrass; experiment: Test C flooded paddy test; assay type: in vivo, Echinochloa crus-galli; conditions: Flood
# Summary of the method: as §2
# [13] = system: downy brome; experiment: Test C pre-/postemergence test; assay type: in vivo, Bromus tectorum
# Summary of the method: as §1
# [14] = system: blackgrass; experiment: Test C pre-/postemergence test; assay type: in vivo, Alopecurus myosuroides
# Summary of the method: as §1
# [15] = system: green foxtail; experiment: Test C pre-/postemergence test; assay type: in vivo, Setaria viridis
# Summary of the method: as §1
# [16] = system: woolly cupgrass; experiment: Test C pre-/postemergence test; assay type: in vivo, Eriochloa villosa
# Summary of the method: as §1
# [17] = system: corn; experiment: Test C pre-/postemergence test; assay type: in vivo, Zea mays
# Summary of the method: as §1
# [18] = 62 g ai/ha, Preemergence, scale 0 to 100
# [19] = 125 g ai/ha, preemergence, scale 0 (no effect) to 100 (complete control)
# [20] = Preemergence, 31 g ai/ha, scale 0 to 100 (0 no effect, 100 complete control)
# [21] = preemergence, 250 g ai/ha, scale 0 (no effect) to 100 (complete control)
# [22] = 62 g ai/ha, scale 0 to 100, 0 no effect, 100 complete control, 13 to 15 days
# [23] = 250 g ai/ha, scale 0 to 100, 0 no effect, 100 complete control, 13 to 15 days
# [24] = Postemergence, 500 g ai/ha, 0 is no effect, 100 is complete control
# [25] = Preemergence, 125 g ai/ha, 0 no effect, 100 complete control
# [26] = 31 g ai/ha, Preemergence, scale 0 to 100
# [27] = 62 g ai/ha, preemergence, scale 0 (no effect) to 100 (complete control)
# [28] = preemergence, 125 g ai/ha, scale 0 (no effect) to 100 (complete control)
# [29] = 31 g ai/ha, scale 0 to 100 (0 no effect, 100 complete control)
# [30] = 125 g ai/ha, scale 0 to 100, 0 no effect, 100 complete control, 13 to 15 days
# [31] = 250 g ai/ha, scale 0 to 100 (0 no effect, 100 complete control)
compound,measurement,setting,value
Cn1nc(C(F)(F)F)c(C(Cl)S(=O)(=O)c2cccc[n+]2[O-])c1OC(F)F (stereo not shown) [Compound 51],"Oat, Wild plant response rating",[1]; [18],0
same,"Oat, Wild plant response rating",[1]; [19],10
same,"Plant response rating, Oat, Wild",[1]; [20],0
same,"Oat, Wild plant response rating",[1]; [21],50
same,"Foxtail, Giant plant response rating",[2]; [18],50
same,"Foxtail, Giant plant response rating",[2]; [19],90
same,"Plant response rating, Foxtail, Giant",[2]; [20],10
same,"Foxtail, Giant plant response rating",[2]; [21],100
same,Soybean plant response rating,[3]; [18],0
same,Soybean plant response rating,[3]; [19],0
same,"Plant response rating, Soybean",[3]; [20],0
same,Soybean plant response rating,[3]; [21],0
same,"Ryegrass, Italian plant response rating",[4]; [18],30
same,"Ryegrass, Italian plant response rating",[4]; [19],80
same,"Plant response rating, Ryegrass, Italian",[4]; [20],0
same,"Ryegrass, Italian plant response rating",[4]; [21],80
same,Johnsongrass plant response rating,[5]; [18],95
same,Johnsongrass plant response rating,[5]; [19],98
same,"Plant response rating, Johnsongrass",[5]; [20],75
same,Johnsongrass plant response rating,[5]; [21],100
same,Cocklebur plant response rating,[6]; [18],0
same,Cocklebur plant response rating,[6]; [19],0
same,"Plant response rating, Cocklebur",[6]; [20],0
same,Cocklebur plant response rating,[6]; [21],0
same,"Plant response rating, Ducksalad",[7]; [22],35
same,"Plant response rating, Ducksalad",[7]; [23],80
same,Velvetleaf plant response rating,[8]; [18],0
same,Velvetleaf plant response rating,[8]; [19],50
same,"Plant response rating, Velvetleaf",[8]; [20],0
same,Velvetleaf plant response rating,[8]; [21],80
same,"Plant response rating, Velvetleaf","[9]; Postemergence, 125 g ai/ha",60
same,Velvetleaf plant response rating,[9]; [24],70
same,Velvetleaf plant response rating,[9]; [25],60
same,"Plant response rating, Velvetleaf","[9]; Preemergence, 500 g ai/ha",70
same,Morningglory plant response rating,[10]; [18],100
same,Morningglory plant response rating,[10]; [19],100
same,"Plant response rating, Morningglory",[10]; [20],100
same,Morningglory plant response rating,[10]; [21],100
same,Galium plant response rating,[11]; [18],85
same,Galium plant response rating,[11]; [19],95
same,"Plant response rating, Galium",[11]; [20],80
same,Galium plant response rating,[11]; [21],95
same,"Plant response rating, Barnyardgrass",[12]; [22],0
same,"Plant response rating, Barnyardgrass",[12]; [23],50
same,"Bromegrass, Downy plant response rating",[13]; [18],0
same,"Bromegrass, Downy plant response rating",[13]; [19],0
same,"Plant response rating, Bromegrass, Downy",[13]; [20],0
same,"Bromegrass, Downy plant response rating",[13]; [21],0
same,Blackgrass plant response rating,[14]; [18],90
same,Blackgrass plant response rating,[14]; [19],90
same,"Plant response rating, Blackgrass",[14]; [20],80
same,Blackgrass plant response rating,[14]; [21],100
same,"Foxtail, Green plant response rating",[15]; [18],85
same,"Foxtail, Green plant response rating",[15]; [19],85
same,"Plant response rating, Foxtail, Green",[15]; [20],65
same,"Foxtail, Green plant response rating",[15]; [21],100
same,"Cupgrass, Woolly plant response rating",[16]; [18],70
same,"Cupgrass, Woolly plant response rating",[16]; [19],90
same,"Plant response rating, Cupgrass, Woolly",[16]; [20],0
same,"Cupgrass, Woolly plant response rating",[16]; [21],100
same,Corn plant response rating,[17]; [18],0
same,Corn plant response rating,[17]; [19],50
same,"Plant response rating, Corn",[17]; [20],0
same,Corn plant response rating,[17]; [21],50
Cc1cc[n+]([O-])c(S(=O)(=O)C(C)c2c(C(F)(F)F)nn(C)c2Cl)c1 (racemic) [Compound 14],"Oat, Wild plant response rating",[1]; [26],0
same,"Oat, Wild plant response rating",[1]; [27],0
same,"Plant response rating (0 to 100), Oat, Wild","[1]; Preemergence, 250 g ai/ha",75
same,"Oat, Wild plant response rating",[1]; [28],10
same,"Foxtail, Giant plant response rating",[2]; [26],85
same,"Foxtail, Giant plant response rating",[2]; [27],85
same,"Plant response rating (0 to 100), Foxtail, Giant","[2]; Preemergence, 250 g ai/ha",100
same,"Foxtail, Giant plant response rating",[2]; [28],100
same,Soybean plant response rating,[3]; [26],0
same,Soybean plant response rating,[3]; [27],0
same,"Plant response rating (0 to 100), Soybean","[3]; Preemergence, 250 g ai/ha",85
same,Soybean plant response rating,[3]; [28],5
same,"Ryegrass, Italian plant response rating",[4]; [26],20
same,"Ryegrass, Italian plant response rating",[4]; [27],55
same,"Plant response rating (0 to 100), Ryegrass, Italian","[4]; Preemergence, 250 g ai/ha",100
same,"Ryegrass, Italian plant response rating",[4]; [28],100
same,Johnsongrass plant response rating,[5]; [26],45
same,Johnsongrass plant response rating,[5]; [27],60
same,"Plant response rating (0 to 100), Johnsongrass","[5]; Preemergence, 250 g ai/ha",100
same,Johnsongrass plant response rating,[5]; [28],100
same,Cocklebur plant response rating,[6]; [26],0
same,Cocklebur plant response rating,[6]; [27],0
same,"Plant response rating (0 to 100), Cocklebur","[6]; Preemergence, 250 g ai/ha",10
same,Cocklebur plant response rating,[6]; [28],10
same,"Plant response rating, Ducksalad",[7]; [29],40
same,"Plant response rating, Ducksalad",[7]; [22],50
same,"Plant response rating, Ducksalad",[7]; [30],80
same,"Plant response rating, Ducksalad",[7]; [31],100
same,Velvetleaf plant response rating,[8]; [27],10
same,"Plant response rating (0 to 100), Velvetleaf","[8]; Preemergence, 250 g ai/ha",100
same,Velvetleaf plant response rating,[8]; [28],100
same,Velvetleaf plant response rating,"[9]; Postemergence, 125 g ai/ha, 0 is no effect, 100 is complete control",0
same,Velvetleaf plant response rating,[9]; [24],60
same,Velvetleaf plant response rating,[9]; [25],0
same,"Plant response rating, Velvetleaf","[9]; Preemergence, 500 g ai/ha",60
same,Morningglory plant response rating,[10]; [26],5
same,Morningglory plant response rating,[10]; [27],98
same,"Plant response rating (0 to 100), Morningglory","[10]; Preemergence, 250 g ai/ha",100
same,Morningglory plant response rating,[10]; [28],100
same,Galium plant response rating,[11]; [26],0
same,Galium plant response rating,[11]; [27],100
same,"Plant response rating (0 to 100), Galium","[11]; Preemergence, 250 g ai/ha",100
same,Galium plant response rating,[11]; [28],100
same,"Plant response rating, Barnyardgrass",[12]; [29],0
same,"Plant response rating, Barnyardgrass",[12]; [22],0
same,"Plant response rating, Barnyardgrass",[12]; [30],60
same,"Plant response rating, Barnyardgrass",[12]; [31],100
same,"Bromegrass, Downy plant response rating",[13]; [26],30
same,"Bromegrass, Downy plant response rating",[13]; [27],35
same,"Plant response rating (0 to 100), Bromegrass, Downy","[13]; Preemergence, 250 g ai/ha",70
same,"Bromegrass, Downy plant response rating",[13]; [28],70
same,Blackgrass plant response rating,[14]; [26],40
same,Blackgrass plant response rating,[14]; [27],80
same,"Plant response rating (0 to 100), Blackgrass","[14]; Preemergence, 250 g ai/ha",80
same,"Foxtail, Green plant response rating",[15]; [26],90
same,"Foxtail, Green plant response rating",[15]; [27],100
same,"Plant response rating (0 to 100), Foxtail, Green","[15]; Preemergence, 250 g ai/ha",100
same,"Foxtail, Green plant response rating",[15]; [28],100
same,"Cupgrass, Woolly plant response rating",[16]; [26],85
same,"Cupgrass, Woolly plant response rating",[16]; [27],85
same,"Plant response rating (0 to 100), Cupgrass, Woolly","[16]; Preemergence, 250 g ai/ha",100
same,"Cupgrass, Woolly plant response rating",[16]; [28],90
same,Corn plant response rating,[17]; [26],0
same,Corn plant response rating,[17]; [27],20
same,"Plant response rating (0 to 100), Corn","[17]; Preemergence, 250 g ai/ha",80
same,Corn plant response rating,[17]; [28],60
